Paper PMC12837263, “β,β-Dimethylacrylalkannin Restores Colistin Efficacy Against mcr- and TCS-Mediated Resistant Gram-Negative Bacteria via Membrane Disturbance” (Antibiotics, 2025)

How the values were obtained:
Assay type in all cases: cell-based
K. pneumoniae 667 = test: Bacterial growth curves; details: β,β-Dim 4 µg/mL, colistin 0.5 µg/mL, alone or combined; 24 h
Description: Overnight cultures of K. pneumoniae 667 and E. coli 13f4 were diluted to 10^6 CFU/mL; then, β,β-Dim (4 μg/mL), colistin (0.5 or 2 μg/mL), and their combination were co-incubated with bacterial suspensions in a 96-well plate. OD600 values were monitored hourly over a 24 h period.

[1] = system: K. pneumoniae, E. coli, Salmonella, P. aeruginosa, and A. baumannii; test: Checkerboard assay, panel of tested strains (summary statements); details: with β,β-Dim; summary over tested strains
Description: (§1) The FICI of β,β-Dim–colistin combination was determined by a checkerboard assay. Briefly, two-fold serial dilutions of β,β-Dim and colistin were prepared in a 96-well plate. After incubation at 37 °C for 18 h with bacterial suspension (10^6 CFU/mL), OD600 values were measured. FICI = (MICβ,β-Dim in combination/MICβ,β-Dim) + (MICcolistin in combination/MICcolistin). The synergistic effect of β,β-Dim with other antibiotics was measured in the same way. Synergy was considered to be an FICI ≤ 0.5.

[2] = system: S. Typhimurium 9891(mcr-1); test: Checkerboard assay (MIC, FICI); details: 9891
Description: as §1

[3] = system: K. pneumoniae 492(mcr-1、blaNDM); test: Checkerboard assay (MIC, FICI); details: 492
Description: as §1

P. aeruginosa 9(mcr-1) = test: Checkerboard assay (MIC, FICI); details: P. aeruginosa 9
Description: as §1

K. pneumoniae 126(mcr-8) = test: Checkerboard assay (MIC, FICI); details: 126
Description: as §1

K. pneumoniae 20(mcr-1) = test: Checkerboard assay (MIC, FICI); details: 20(mcr-1)
Description: as §1

E. coli BW25113-184 = test: Checkerboard assay (MIC, FICI); details: BW25113-184
Description: as §1

E. coli ATCC 25922 = test: Checkerboard assay (MIC, FICI); details: 25922
Description: as §1

A. baumannii ATCC 19606 = test: Checkerboard assay (MIC, FICI); details: 19606
Description: as §1

[4] = system: E. coli BW25113-pmrAD82N(pmrA); test: Checkerboard assay (MIC, FICI); details: BW25113-pmrAD82N
Description: as §1

[5] = system: K. pneumoniae 251(mgrB、phoP、pmrA、blaKPC); test: Checkerboard assay (MIC, FICI); details: 251
Description: as §1

E. coli ZJ71(mcr-1) = test: Checkerboard assay (MIC, FICI); details: ZJ71
Description: as §1

[6] = system: K. pneumoniae 197(mcr-1、blaNDM); test: Checkerboard assay (MIC, FICI); details: 197
Description: as §1

[7] = system: K. pneumoniae 667(phoP、pmrA、blaKPC); test: Checkerboard assay (MIC, FICI); details: 667
Description: as §1

[8] = system: S. Typhimurium ATCC 14028; test: Checkerboard assay (MIC, FICI); details: 14028
Description: as §1

E. coli pHSG299-mcr-3 = test: Checkerboard assay (MIC, FICI); details: pHSG299-mcr-3
Description: as §1

[9] = system: E. coli BW25113-184-mcr-1; test: Checkerboard assay (MIC, FICI); details: BW25113-184-mcr-1
Description: as §1

[10] = system: K. pneumoniae 29(mcr-8、pmrB、blaNDM); test: Checkerboard assay (MIC, FICI); details: 29
Description: as §1

K. pneumoniae 109(mcr-8) = test: Checkerboard assay (MIC, FICI); details: 109
Description: as §1

P. aeruginosa PAO1 = test: Checkerboard assay (MIC, FICI); details: PAO1
Description: as §1

K. pneumoniae ATCC 13883 = test: Checkerboard assay (MIC, FICI); details: 13883
Description: as §1

[11] = system: K. pneumoniae 57(mcr-9、blaNDM); test: Checkerboard assay (MIC, FICI); details: 57
Description: as §1

[12] = system: K. pneumoniae 650(mgrB、phoP、pmrA、blaKPC); test: Checkerboard assay (MIC, FICI); details: 650
Description: as §1

E. coli 13f4(mcr-1) = test: Checkerboard assay (MIC, FICI); details: 13f4
Description: as §1

[13] = system: E. coli BW25113-pmrBR93P(pmrB); test: Checkerboard assay (MIC, FICI); details: BW25113-pmrBR93P
Description: as §1

Question: What does the source list for colistin?
Answer: bacterial growth (growth curves) (K. pneumoniae 667): neither β,β-Dim (4 µg/mL) nor colistin (0.5 µg/mL) alone inhibited the growth; colistin MIC in combination [1]: ≤ 2 µg/mL; reduction of colistin MIC [1]: 4–1024 fold; MIC of colistin ([2]; alone): 16 µg/mL; Potentation ([2]; fold drop of colistin MIC): 8; MIC of colistin [combination] ([2]; with β,β-Dim): 2 µg/mL; MIC of colistin ([3]; alone): 4 µg/mL; Potentation ([3]; fold drop of colistin MIC): 32; MIC of colistin [combination] ([3]; with β,β-Dim): 0.125 µg/mL; MIC of colistin (P. aeruginosa 9(mcr-1); alone): 4 µg/mL; Potentation (P. aeruginosa 9(mcr-1); fold drop of colistin MIC): 8; MIC of colistin [combination] (P. aeruginosa 9(mcr-1); with β,β-Dim): 0.5 µg/mL; MIC of colistin (K. pneumoniae 126(mcr-8); alone): > 512 µg/mL; Potentation (K. pneumoniae 126(mcr-8); fold drop of colistin MIC): 1024; MIC of colistin [combination] (K. pneumoniae 126(mcr-8); with β,β-Dim): 0.5 µg/mL; MIC of colistin (K. pneumoniae 20(mcr-1); alone): 64 µg/mL; Potentation (K. pneumoniae 20(mcr-1); fold drop of colistin MIC): 64; MIC of colistin [combination] (K. pneumoniae 20(mcr-1); with β,β-Dim): 1 µg/mL; MIC of colistin (E. coli BW25113-184; alone): 0.125 µg/mL; Potentation (E. coli BW25113-184; fold drop of colistin MIC): 4; MIC of colistin [combination] (E. coli BW25113-184; with β,β-Dim): 0.0313 µg/mL; MIC of colistin (E. coli ATCC 25922; alone): 0.125 µg/mL; Potentation (E. coli ATCC 25922; fold drop of colistin MIC): 4; MIC of colistin [combination] (E. coli ATCC 25922; with β,β-Dim): 0.0313 µg/mL; MIC of colistin (A. baumannii ATCC 19606; alone): 0.5 µg/mL; Potentation (A. baumannii ATCC 19606; fold drop of colistin MIC): 64; MIC of colistin [combination] (A. baumannii ATCC 19606; with β,β-Dim): 0.0078 µg/mL; MIC of colistin ([4]; alone): 16 µg/mL; Potentation ([4]; fold drop of colistin MIC): 32; MIC of colistin [combination] ([4]; with β,β-Dim): 0.5 µg/mL; MIC of colistin ([5]; alone): 512 µg/mL; Potentation ([5]; fold drop of colistin MIC): 1024; MIC of colistin [combination] ([5]; with β,β-Dim): 0.5 µg/mL; MIC of colistin (E. coli ZJ71(mcr-1); alone): 4 µg/mL; Potentation (E. coli ZJ71(mcr-1); fold drop of colistin MIC): 8; MIC of colistin [combination] (E. coli ZJ71(mcr-1); with β,β-Dim): 0.5 µg/mL; MIC of colistin ([6]; alone): 4 µg/mL; Potentation ([6]; fold drop of colistin MIC): 8; MIC of colistin [combination] ([6]; with β,β-Dim): 0.5 µg/mL; MIC of colistin ([7]; alone): 64 µg/mL; Potentation ([7]; fold drop of colistin MIC): 128; MIC of colistin [combination] ([7]; with β,β-Dim): 0.5 µg/mL; MIC of colistin ([8]; alone): 1 µg/mL; Potentation ([8]; fold drop of colistin MIC): 2; MIC of colistin [combination] ([8]; with β,β-Dim): 0.5 µg/mL; MIC of colistin (E. coli pHSG299-mcr-3; alone): 2 µg/mL; Potentation (E. coli pHSG299-mcr-3; fold drop of colistin MIC): 16; MIC of colistin ([9]; alone): 4 µg/mL; Potentation ([9]; fold drop of colistin MIC): 4; MIC of colistin [combination] ([9]; with β,β-Dim): 1 µg/mL; MIC of colistin ([10]; alone): 64 µg/mL; Potentation ([10]; fold drop of colistin MIC): 256; MIC of colistin [combination] ([10]; with β,β-Dim): 0.25 µg/mL; MIC of colistin (K. pneumoniae 109(mcr-8); alone): 16 µg/mL; Potentation (K. pneumoniae 109(mcr-8); fold drop of colistin MIC): 64; MIC of colistin [combination] (K. pneumoniae 109(mcr-8); with β,β-Dim): 0.25 µg/mL; MIC of colistin (P. aeruginosa PAO1; alone): 1 µg/mL; Potentation (P. aeruginosa PAO1; fold drop of colistin MIC): 2; MIC of colistin [combination] (P. aeruginosa PAO1; with β,β-Dim): 0.5 µg/mL; MIC of colistin (K. pneumoniae ATCC 13883; alone): 0.5 µg/mL; Potentation (K. pneumoniae ATCC 13883; fold drop of colistin MIC): 4; MIC of colistin [combination] (K. pneumoniae ATCC 13883; with β,β-Dim): 0.125 µg/mL; MIC of colistin ([11]; alone): 2 µg/mL; Potentation ([11]; fold drop of colistin MIC): 32; MIC of colistin [combination] ([11]; with β,β-Dim): 0.0625 µg/mL; MIC of colistin ([12]; alone): 32 µg/mL; Potentation ([12]; fold drop of colistin MIC): 16; MIC of colistin [combination] ([12]; with β,β-Dim): 2 µg/mL; MIC of colistin (E. coli 13f4(mcr-1); alone): 4 µg/mL; Potentation (E. coli 13f4(mcr-1); fold drop of colistin MIC): 4; MIC of colistin [combination] (E. coli 13f4(mcr-1); with β,β-Dim): 1 µg/mL; MIC of colistin ([13]; alone): 8 µg/mL; Potentation ([13]; fold drop of colistin MIC): 32; MIC of colistin [combination] ([13]; with β,β-Dim): 0.25 µg/mL
